Results taken from patent US20070141714A1, “Method to detect small molecules binding to proteins using surface enhanced Raman scattering (SERS)” (Intel Corporation, priority 2005, published 2007).

Experiments:
[1] = biological target: protein kinase A (PKA) (Homo sapiens, UniProt P17612); assay: SERS detection of small molecule binding to protein after size exclusion spin column; conditions: 2.5 μM H-89, 0.2 mg/mL protein, PKA reaction buffer, 30 minutes at room temperature; flow through, difference of SERS spectra at 70° C. and room temperature
Experimental: In FIG. 2 small molecules and proteins are mixed in a purification column such as a size exclusion spin column and are allowed to incubate for a period of time. The incubation times depends on the binding affinity between the small molecule and the protein. Typically an incubation time of 10-30 minutes at room temperature is sufficient. The solvent used in the purification column is preferably chosen to optimize binding between the small molecules and the proteins. For example, PKA reaction buffer (50 mM Tris-HCl, 10 mM MgCl2) is preferably used for optimal binding between PKA and H-89.
For example, molecules with molecular weights below a certain cut-off value are retained in the size-exclusion type purification columns while protein molecules are collected in the flow through. Any small molecules that bind to the protein can also be carried through the column with the protein and recovered in the flow through. Raman spectroscopy using SERS active particles can be used to detect the small molecules in the flow through.
In FIG. 2-2 the small molecules are first released from the proteins in the flow through by, for example, heating the flow through. Raman spectroscopy is then again used to detect the presence of the small molecules in the flow through.
H-89 is a known small molecule inhibitor to protein kinase A (PKA). […]

[2] = system: Histone; assay: SERS detection of small molecule binding to protein after size exclusion spin column (negative control protein); conditions: 2.5 μM H-89, 0.2 mg/mL protein, same procedure
Experimental: (§1) PIERCE ZEBA-ZEBA desalt spin columns (cat #89882) were washed 10 times with methanol and 10 times with purified water. H-89 was then mixed with PKA or control proteins in a PKA reaction buffer (50 mM Tris-HCl, 10 mM MgCl2), making a final H-89 concentration of 2.5 μM and protein concentration of 0.2 mg/mL. This mixture was incubated at room temperature for 30 minutes, added to a desalting size exclusion spin column, and spun at 1500 g for 2 minutes to remove free H-89.
(§2) The silver colloids are aggregated by 0.5M of Lithium Chloride prior to addition of the sample. Ten spectra are collected from the mixture of sample and aggregated silver colloids. The remaining flow through is heated at 70° C. for 10 minutes, and another SERS measurement is performed. The line labeled PKA is the arithmetic difference in the SERS spectrums at 70° C. and room temperature (intensity on the primary y-axis). The main characteristic peaks of H-89 are visible and marked by black arrows.
(§3) The same procedure described above is repeated with other proteins including bovine serum albumin (labeled BSA), immunoglobulin G (labeled IgG), and Histone (labeled as Histone) as negative controls. The SERS spectrum corresponding to H-89 is not seen in any of these controls.

[3] = biological target: bovine serum albumin (BSA) (Bos taurus, UniProt P02769); assay: as above; conditions: 2.5 μM H-89, 0.2 mg/mL protein, same procedure
Experimental: as §1, §2, §3

[4] = system: immunoglobulin G (IgG); assay: as above; conditions: 2.5 μM H-89, 0.2 mg/mL protein, same procedure
Experimental: as §1, §2, §3

Sequence of bovine serum albumin (BSA) (P02769 25-607): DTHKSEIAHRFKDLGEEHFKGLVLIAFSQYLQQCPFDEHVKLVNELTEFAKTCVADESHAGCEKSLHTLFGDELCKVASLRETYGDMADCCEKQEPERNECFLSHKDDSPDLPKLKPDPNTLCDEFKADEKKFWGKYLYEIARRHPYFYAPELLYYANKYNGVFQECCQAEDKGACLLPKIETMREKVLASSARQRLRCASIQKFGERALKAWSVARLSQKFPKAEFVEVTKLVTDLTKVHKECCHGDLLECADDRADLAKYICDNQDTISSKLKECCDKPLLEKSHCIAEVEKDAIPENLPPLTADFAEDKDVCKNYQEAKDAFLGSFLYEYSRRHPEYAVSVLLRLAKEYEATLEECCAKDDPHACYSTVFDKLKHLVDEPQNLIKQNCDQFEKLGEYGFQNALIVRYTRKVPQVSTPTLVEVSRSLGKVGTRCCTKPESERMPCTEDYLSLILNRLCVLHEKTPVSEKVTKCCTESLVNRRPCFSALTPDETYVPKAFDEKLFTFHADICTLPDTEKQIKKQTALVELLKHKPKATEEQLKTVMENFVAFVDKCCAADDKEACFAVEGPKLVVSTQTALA

binding to PKA (characteristic H-89 peaks in SERS difference spectrum) [1]: there was binding of H-89 to PKA
Structure (SMILES): O=S(=O)(NCCNC/C=C/c1ccc(Br)cc1)c1cccc2cnccc12 [H-89]
specific binding to Histone (SERS spectrum corresponding to H-89) [2]: specific binding of H-89 to the control proteins did not occur
specific binding to BSA (SERS spectrum corresponding to H-89) [3]: specific binding of H-89 to the control proteins did not occur
specific binding to IgG (SERS spectrum corresponding to H-89) [4]: specific binding of H-89 to the control proteins did not occur
